Data from patent US8969325B2, “TRPV1 antagonists” (AbbVie Inc., priority 2011, dated 2015).

Key:
human TRPV1 [1] = target: T1, human TRPV1 (Homo sapiens (Human), UniProt Q8NER1); assay: Capsaicin Activation Assay (intracellular Ca2+, FLIPR); type: cell-based; conditions: recombinant HEK293 cells expressing hTRPV1, 50 nM capsaicin
Summary of the method: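 Ca2+ fluorescence was recorded by FLIPR every 1 to 5 seconds in HEK293 cells, clonally selected for stable human TRPV1 expression and plated one day ahead. Test compounds came as serial dilutions of 10 mM DMSO stocks.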

human TRPV1 [2] = target: T1, human TRPV1; assay: Acid Activation Assay (pH 5.0, intracellular Ca2+, FLIPR); type: cell-based; conditions: percentage of the maximal pH 5.0-induced response remaining; recombinant HEK293 hTRPV1 cells; maximum concentration tested 37.5 μM
Summary of the method: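 Readout: peak [Ca2+]i fluorescence over baseline on FLIPR, expressed as percentage remaining of the maximal pH 5.0-evoked signal. Stable hTRPV1-HEK293 cells with Calcium-4 dye received compound (12 half-log concentrations, maximum 37.5 μM) 3 min before acidic pH 5.0 buffer.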

rats [3] = assay: Rat acute capsaicin-induced flinching behavior; type: in vivo; conditions: 1 h, oral dose given as 100 nmol/kg, capsaicin 2.5 μg into hind paw one hour after compound, five minute observation, relative to control-treated animals, read-out: % effect (percent reduction in the number of flinching behaviors)
Description: Rats were placed in individual observation cages. Following an acclimation period of 30 minutes, selected compounds were administered orally at a dose of 100 nmol/kg in a vehicle (10% ethanol/20% Tween 80/70% polyethylene glycol-400) at a volume of 2 mL/kg. One hour after administration of the compound, 2.5 μg of capsaicin in a 10 μL solution of 10% ethanol/90% hydroxypropyl-β-cyclodextrin was injected subcutaneously into the dorsal aspect of the right hind paw. The observation cage was then suspended above mirrors in order to facilitate observation. […] The number of flinching behaviors of the injured paw was recorded during the five minute observation period (Gilchrist, H. D.; Allard, B. L.; Simone, D. A.; Enhanced withdrawal responses to heat and mechanical stimuli following intraplantar injection of capsaicin in rats. Pain, 1996, 67, 179-188). The percent reduction in the number of flinching behaviors produced from oral administration of the test compounds relative to control-treated animals (% effect) is reported in Table 2.

rats [4] = assay: Sodium iodoacetate-induced knee joint osteoarthritic pain model (hind limb grip force); type: in vivo; conditions: rat, po, single acute dose, 1 hour after administration, 20 days after sodium iodoacetate, read-out: % effect (% return to normalcy of hind limb grip force)
Description: Unilateral knee joint osteoarthritis was induced in the rats by a single intra-articular (i.a.) injection of sodium iodoacetate (3 mg in 0.05 mL sterile isotonic saline) into the right knee joint cavity under light isoflurane anesthesia using a 26 G needle. […] Pain behavioral assessment of hind limb grip force was conducted by recording the maximum compressive force exerted on the hind limb strain gauge setup, in a commercially available grip force measurement system (Columbus Instruments, Columbus, Ohio). The grip force data was converted to a maximum hindlimb cumulative compressive force (CFmax) (gram force)/kg body weight for each animal. The analgesic effects of test compounds were determined 20 days following the i.a. injection of sodium iodoacetate. The vehicle control group for each compound being tested was assigned 0% whereas the age matched naïve group was assigned as being 100% (normal). The % effect for each dose group was then expressed as % return to normalcy compared to the naïve group. Test compounds were administered orally in 10% ethanol/20% Tween 80/70% polyethylene glycol-400 vehicle at a volume of 2 mL/kg. The assessment of the analgesic effects of test compounds was made 1 hour following oral administration. The assessment of the analgesic effects of test compounds can be made following a single dose or following repeated administration wherein the frequency of dosing is 1 to 2 times daily. The duration of such repeated daily dosing may last for any time greater than one day. A typical duration of repeated daily dosing is about 5 days to about 12 days.

rats [5] = assay: Rat tail immersion assay of noxious thermosensation; type: in vivo; conditions: morphine 6 mg/kg i.p. in saline, 55° C. water bath, relative to vehicle control
Description: Compounds were tested for their effects on noxious thermosensation using the tail immersion assay. Testing was performed one hour following oral administration of 100 μmol/kg of the compound in 10% ethanol/20% Tween-80/70% PEG-400 (2 mL/kg). Mophine (6 mg/kg) was administered interperitoneally (i.p.) using saline (2 mL/kg) as the vehicle. For testing, a circulating water bath was heated to 55° C. Thirty to sixty minutes post dosing, the rats were handled for a few seconds to calm them down and then cupped with their back against the testers hand at a slight angle with head facing away from tester. With rat in one hand and a 0.01 second stopwatch in the other hand, the tail was quickly immersed 6-8 cm in water bath or to a distance leaving 2-3 cm of tail out of water. The timer was started simultaneously. When the rat flinched or attempted withdrawal, timer was immediately stopped and the rat's tail was quickly removed from water bath. This response latency (in seconds) was recorded. Process was repeated 3 times with 3-4 minutes between readings for a final average.
For a given compound, a percent increase in the average response latency (in seconds) for tail withdrawal relative to a vehicle control was determined % increase=[(tc−tv)/tv]×100% […]
Table 1 reports the % increase in tail withdrawal latency measured for the compounds tested. […]

T1 sequence (Q8NER1 whole entry): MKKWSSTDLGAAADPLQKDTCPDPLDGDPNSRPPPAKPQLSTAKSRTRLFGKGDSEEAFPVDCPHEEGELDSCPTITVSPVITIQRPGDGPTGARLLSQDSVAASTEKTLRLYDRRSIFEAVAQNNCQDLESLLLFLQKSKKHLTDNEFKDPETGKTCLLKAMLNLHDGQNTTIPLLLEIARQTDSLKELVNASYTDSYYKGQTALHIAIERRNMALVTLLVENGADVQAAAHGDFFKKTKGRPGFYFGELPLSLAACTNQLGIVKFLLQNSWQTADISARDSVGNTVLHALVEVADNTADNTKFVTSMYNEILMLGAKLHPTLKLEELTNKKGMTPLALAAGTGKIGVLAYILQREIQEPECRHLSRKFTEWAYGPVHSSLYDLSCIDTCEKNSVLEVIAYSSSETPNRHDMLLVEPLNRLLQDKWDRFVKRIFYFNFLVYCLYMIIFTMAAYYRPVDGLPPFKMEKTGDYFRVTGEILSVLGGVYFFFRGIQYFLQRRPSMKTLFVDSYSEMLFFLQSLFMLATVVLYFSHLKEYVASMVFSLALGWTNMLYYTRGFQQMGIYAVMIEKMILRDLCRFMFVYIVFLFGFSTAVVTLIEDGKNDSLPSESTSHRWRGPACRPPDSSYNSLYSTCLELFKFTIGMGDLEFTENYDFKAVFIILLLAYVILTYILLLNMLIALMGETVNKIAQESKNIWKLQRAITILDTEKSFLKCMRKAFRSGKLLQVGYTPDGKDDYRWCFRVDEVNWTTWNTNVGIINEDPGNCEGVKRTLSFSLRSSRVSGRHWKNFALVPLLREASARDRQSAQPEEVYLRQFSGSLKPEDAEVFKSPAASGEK

| SMILES | IC50 (human TRPV1 [1]) [nM] | human TRPV1 H^+ (max % remain) (human TRPV1 [2]) [%] | inhibition in vivo at 0.1 µmol/kg (rats [3]) [%] | inhibition in vivo at 13 mg/kg (rats [4]) [%] | inhibition in vivo at 10 mg/kg (rats [4]) [%] | % Increase in tail withdrawal latency (rats [5]) |
| --- | --- | --- | --- | --- | --- | --- |
| CN1Cc2ccc(NC(=O)N[C@@H]3C[C@](C)(C(F)(F)F)Oc4ccccc43)cc2NC1=O [Example 18, 1-(3-methyl-2-oxo-1,2,3,4-tetrahydroquinazolin-7-yl)-3-[(2R,4R)-2-methyl-2-(trifluoromethyl)-3,4-dihydro-2H-chromen-4-yl]urea] | 48 | 51 | 64 | 62 |  |  |
| CC1(C)C[C@@H](NC(=O)Nc2ccc3c(c2)NC(=O)CC3)c2ccc(F)c(F)c2O1 [Example 33, 1-[(4R)-7,8-difluoro-2,2-dimethyl-3,4-dihydro-2H-chromen-4-yl]-3-(2-oxo-1,2,3,4-tetrahydroquinolin-7-yl)urea] | 20 | 42 | 59 |  | 37 |  |
| CN1C(=O)CCc2ccc(NC(=O)N[C@@H]3CCc4cc(C(F)(F)F)ccc43)cc21 [Example 36, 1-(1-methyl-2-oxo-1,2,3,4-tetrahydroquinolin-7-yl)-3-[(1R)-5-(trifluoromethyl)-2,3-dihydro-1H-inden-1-yl]urea] | 34 | 66 | 60 |  |  |  |
| CN1C(=O)CCc2ccc(NC(=O)N[C@@H]3CCOc4cc(C(F)(F)F)ccc43)cc21 [Example 37, 1-(1-methyl-2-oxo-1,2,3,4-tetrahydroquinolin-7-yl)-3-[(4R)-7-(trifluoromethyl)-3,4-dihydro-2H-chromen-4-yl]urea] | 50 | 60 | 78 | 43 |  |  |
| CC1(C)C[C@@H](NC(=O)Nc2ccc3c(c2)NC(=O)CO3)c2ccc(F)cc2O1 [Example 38, 1-[(4R)-7-fluoro-2,2-dimethyl-3,4-dihydro-2H-chromen-4-yl]-3-(3-oxo-3,4-dihydro-2H-1,4-benzoxazin-6-yl)urea] | 56 | 92 | 69 |  | 63 |  |
| CC1(C)C[C@@H](NC(=O)Nc2ccc3c(c2)NC(=O)CC3)c2ccc(F)cc2O1 [Example 221, 1-[(4R)-7-fluoro-2,2-dimethyl-3,4-dihydro-2H-chromen-4-yl]-3-(2-oxo-1,2,3,4-tetrahydroquinolin-7-yl)urea] | 1600 | 39 | 53 |  |  |  |
| C[C@]1(CF)C[C@@H](NC(=O)Nc2ccc3c(c2)NC(=O)CC3)c2ccc(Cl)cc2O1 [Example 241, 1-[(2R,4R)-7-chloro-2-(fluoromethyl)-2-methyl-3,4-dihydro-2H-chromen-4-yl]-3-(2-oxo-1,2,3,4-tetrahydroquinolin-7-yl)urea] | 130 | 54 | 53 |  |  |  |
| CN1CC[C@]23c4c5ccc(O)c4O[C@H]2[C@@H](O)C=C[C@H]3[C@H]1C5 [Morphine, morphine] |  |  |  |  |  | +++ (greater than or equal to 25% increase) |
